Earlier results as cited in patent publication US20230357519A1, “REMOVAL OF ODORANTS FROM POST-CONSUMER POLYOLEFIN WASTE” (Borealis AG, priority 2020, published 2023).

details: octanol/water; not determined experimentally, generally accepted literature values

Row | Compound | log Poctanol/water
1 | C=Cc1ccccc1 [Styrene] | 3.05^2
2 | CCCC(C)=O [2-Pentanone] | 0.84^2
3 | CCCCCCCC(C)=O [2-Nonanone] | 3.16^2
4 | C=C(C)[C@H]1CC=C(C)CC1 [D-Limonene] | 4.57^4
5 | CCCCC(CCCC)CC(C)C [5-(2-Methylpropyl)-nonane] | 5.03^5
6 | CCCCC(C)CCCC(C)C (centres unmarked) [2,6-Dimethyl decane] | 6.09^6
7 | CC(O)C(C)O (centres unmarked) [2,3-Butanediol] | −0.92^1
8 | CCCCC(CC)CO (centres unmarked) [2-Ethyl-1-hexanol] | 2.73^3
